{
  "source": "patent US20240325484A1",
  "about": "“COMPOSITION COMPRISING HORSE CHESTNUT EXTRACT” (ANGIOLAB, INC., priority 2021, published 2024)",
  "tested_on": "RAW264.7 cells",
  "assay": "Cytotoxicity assay (XTT, cell viability)",
  "details": "4 days, at concentrations of 2.5, 5, 10, and 25 μM (FIG. 7 to FIG. 10)",
  "procedure": "The cells were treated with 50 μl of XTT reagent per well, then reacted for four hours. An absorbance change thereof was measured at 490 nm and 650 nm (reference wavelength) by ELISA (enzyme linked immunosorbent assay) reader (Molecular Devices, USA), and a cell viability was expressed as a percentage.",
  "data": [
    {"compound": "C[C@@H]1O[C@@H](Oc2c(-c3ccc(O)c(O)c3)oc3cc(O)cc(O)c3c2=O)[C@H](O)[C@H](O)[C@H]1O", "note": "[quercitrin, Quercitrin]", "values": [
      {"measurement": "cytotoxicity", "value": "no cytotoxicity"}
    ]}
  ]
}
